Data from patent EP0002051A1, “Use of butoxybenzylhyoscyamine bromide in pharmaceutical compositions against deafness and tinnitus” (Eisai Co., Ltd., priority 1977, dated 1979).

How the values were obtained:
[1] = tested on: hearing power; assay: clinical test: change of hearing power after administration (case histories, audiograms); format: in vivo, patients
Procedure: (§1) Among patients who came into the hospital during the period of from September 1976 to September 1977 while complaining of deafness or tinnitus, those meeting the following conditions were chosen.
(§2) In principle, a mixture of 4 mg of butoxybenzylhyoscyamine bromide with 2o % glucose was intravenously injected at first, and then, two capsules, each containing 5 mg of butoxybenzylhyoscyamine bromide, was administered 3-times per day (namely, 6 capsules being administered as a whole per day). The administration of capsules was conducted for one week.
(§3) • (a) The standard autiometry (125 - 8ooo Hz, air and bone condition) was carried out before the injection. • (b) The same test was conducted 3o minutes after the injection. In patients complaining of tinnitus, the change of the degree of tinnitus was examined. • (c) The audiometry was carried out on the 7th day from the start of the oral administration. If the patients felt changes of hearing power or tinnitus during this period, the audiometry was appropriately conducted. • (d) During the oral administraion period of 7 days, desease conditions such as (1) hearing power (2) tinnitus, (3) other ear symptoms and (4) side effects were recorded in examination cards.
(§4) • 1. Change of hearing power just after injection (3o minutes: • With respect to 5o patients, the audiometry was carried out just after the intravenous injection of butoxybenzylhyoscyamine bromide (3o minutes after the injection) to obtain results shown in table 2. Sounds of 25o Hz, 1000 Hz and 8000 Hz were chosen as typical instances of sounds of the low-tone, medium-tone and high-tone regions, respectively, and changes of the hearing power to these sounds were examined. The change within a range of + 5 dB was judged as "no change" and the change exceeding 5 dB was judged as "improvement" or "worsening". [formula] As will be apparent from the results shown in table 2, the highest improvement was 2o dB (1ooo Hz) but in many cases, the improvement was up to 15 dB. The improvement was higher in the order of the low-tone region (18%), the high-tone region (12 %) and the mediom-tone region (8%) and the average improvement of the hearing power after the intravenous injection was about 13 %. • 2. Improvement of Tinnitus: With respect to 41 patients complaining of tinnitus, the change of degree of tinnitus was examined after one week's oral administration to obtain results shown belof in table 3. [formula] As will be apparent from the results shown in table 3, the agent was effective in 15 patients (36%), though the agent of the present invention was ineffective in 24 patients (59%) or the agent worsened the state in 2 patients (5%). • 3. Change of hearing power after administration: Changes of the hearing power were examined during a period of 1 year and three months at longest after one week's administration. With respect to cases where high improving effects were attained, the clinical history will be described.

[2] = tested on: hearing power; assay: clinical test: audiometry just after intravenous injection (30 minutes); format: in vivo; conditions: 5o patients
Procedure: as §1
(§5) Butoxybenzylhyoscyamine bromide was administered to 74 patients meeting the above conditions.
as §2, §3, §4

[3] = tested on: male and female rats; assay: chronic toxicity, continuous administration for 25 weeks; format: in vivo
Procedure: Toxicity of butoxybenzylhyoscyamine bromide in detail: • (A) The acute toxicity, LDSo(mg/kg), is as shown in table 1 [formula] • (B) The compound was administered in an amount of 3.2, 8.0 or 2o mg/kg per day to male and female rats conti- nously during 25 weeks to determine the chronic toxicity.

[4] = tested on: tinnitus; assay: clinical test: change of degree of tinnitus after one week's oral administration; format: in vivo; conditions: 41 patients complaining of tinnitus
Procedure: as §1, §5, §2, §3, §4

[5] = rats, 3.2, 8.0 or 2o mg/kg per day

Compound: CCCCOc1ccc(C[N+]2(C)C3CCC2CC(OC(=O)C(CO)c2ccccc2)C3)cc1 (stereo not shown) [butoxybenzylhyoscyamine bromide, N-(p-n-butoxybenzyl)-hyoscyaminium bromide]
- tinnitus, Case 2 ([1]; person with the improvement of the hearing power): Tinnitus disappeared
- hearing loss, Case 6 ([1]; person, 3o minutes after intravenous injection): the hearing loss was extremely reduced
- hearing power after second 1 week oral administration, Case 4 ([1]; person, at termination of the second oral administration): further improved in the low-tone region
- hearing power restored on the average, Case 4 ([1]; person, fixed perceptive deafness, one intravenous injection then 1 week oral, after 3 weeks): about 1o
- hearing power restored at maximum, Case 4 ([1]; person, fixed perceptive deafness, one intravenous injection then 1 week oral, after 3 weeks, 2 KHz): 2o
- change of hearing power, Case 3 ([1]; person, fixed sudden deafness of right ear, repeated intravenous injection): remarkably improved in the low-tone region
- hearing loss after about 1 month, Case 2 ([1]; person, left ear, hearing loss about 5o dB before, one week oral administration with S.G.B.): 1o
- hearing power after one week's administration, Case 2 ([1]; person, left ear, hearing loss about 5o dB before, oral administration while conducting S.G.B.): returned to the level equal to the level at the first examination
- change of hearing power, Case 5 ([1]; person, perceptive deafness of left ear, oral, 3 weeks, 6 capsules per day): gradually recovered but was not returned to the normal level
- change of hearing power, Case 1 ([1]; person, perceptive deafness, six capsules of 5 mg per day): the improvement was observed in the low-tone region after the administration
- improvement of hearing power in many cases ([2]; 3o minutes after intravenous injection of 4 mg): up to 15 dB
- highest improvement of hearing power ([2]; 3o minutes after intravenous injection of 4 mg, 1ooo Hz): 2o
- improvement, low-tone region ([2]; 3o minutes after intravenous injection, 25o Hz, change exceeding 5 dB judged as improvement): 18%
- improvement, medium-tone region ([2]; 3o minutes after intravenous injection, 1000 Hz, change exceeding 5 dB judged as improvement): 8%
- improvement, high-tone region ([2]; 3o minutes after intravenous injection, 8000 Hz, change exceeding 5 dB judged as improvement): 12%
- average improvement of the hearing power after the intravenous injection ([2]; average of low-, medium- and high-tone regions): about 13%
- change in organs (chronic toxicity) [3, 5]: no substantial change was observed in any organ
- tests of blood and urine (chronic toxicity) [3, 5]: particular changes or disorders were not observed at all
- changes observed (chronic toxicity) ([3]; rats, daily administered amount 2o mg/kg): inactive motion, mydriasis, control of increase of the body weight, storage of a small quantity of abdominal dropsy and formation of false membranes on the liver and spleen
- tinnitus: effective, number of patients [4]: 15 patients
- tinnitus: effective, share of patients [4]: 36%
- tinnitus: ineffective, number of patients [4]: 24 patients
- tinnitus: ineffective, share of patients [4]: 59%
- tinnitus: state worsened, number of patients [4]: 2 patients
- tinnitus: state worsened, share of patients [4]: 5%
